Patent US6423688B1, “Dipeptide and related compounds which inhibit leukocyte adhesion mediated by VLA-4” (Athena Neurosciences, Inc., priority 1997, dated 2002)
Peptide text beside a SMILES is read from it. * marks the point of attachment. Tos = Cc1ccc(S(=O)(=O)*)cc1

Row | Compound | melting point [°C]
1 | Cc1ccc(S(=O)(=O)N2CCC[C@H]2C(=O)N[C@@H](CC(N)=O)C(=O)O)cc1 [Example 2, N-(Toluene-4-sulfonyl)-L-prolyl-L-asparagine] (Tos-Pro-Asn-OH) | 178 to 180
2 | Cc1ccc(S(=O)(=O)N2CCC[C@H]2C(=O)N[C@@H](CCC(N)=O)C(=O)O)cc1 [Example 5, N-(Toluene-4-sulfonyl)-L-prolyl-L-glutamine] (Tos-Pro-Gln-OH) | 45 to 55
